Laboratory results taken from US5541181A, “Compound produced by a strain of micromonospora” (Bristol-Myers Squibb Company, priority 1994, dated 1996).
In brackets after ≈: the same amount, converted by molar mass. Read-outs that look alike come from different tables or passages of the source.

Columns and labels:
B16-F10 cells = experiment: In vitro cytotoxicity, B16-F10 (murine melanoma), neutral red, 72 hours; assay type: cell-based; details: for cytotoxicity: B16-F10, compared with BU-4664L; for IC50: Mus musculus, B16-F10, 72 hours
Experimental: (§1) In Vitro Cytoxicity. B16-F10 (murine melanoma) and Moser (human colorectal carcinoma) were grown in Eagle's minimum essential medium (Nissui) supplement with fetal calf serum (FCS, 10%) and kanamycin (60 μg/ml), HCT-116 (human colon carcinoma) cells were grown in McCoy's 5A Medium (Gibco) supplemented with FCS (10%), penicillin (100 u/ml) and streptomycin (100 μg/ml), and K562 (human myelogenous leukemia) were in RPM 11640 medium supplemented with FCS (10%), penicillin (100 u/ml) and streptomycin (100 μg/ml) at 37° C. under humidified atmosphere in a CO2 incubator. The exponentially growing B16-F10, Moser, K562 and HCT-116 cells were harvested, counted and suspended in the culture media at 1.5×10^4, 6×10^4, 3×10^4 and 8×10^4 cells/ml, respectively. The test materials were planted into the wells of 96 or 24-well tissue culture plate and for 72 hours. The cytotoxic activities were colorimetrically determined at 540 nm after staining viable cells with neutral red solution.

HCT-116 cells = experiment: In vitro cytotoxicity, HCT-116 (human colon carcinoma), neutral red, 72 hours; assay type: cell-based; details: for cytotoxicity: HCT-116, compared with BU-4664L; for IC50: Homo sapiens, HCT-116, 72 hours
Experimental: as §1

5-lipoxygenase (5-LPO) = molecular target: T1, 5-lipoxygenase (5-LPO) (Rattus norvegicus, UniProt P12527); experiment: 5-Lipoxygenase (5-LPO) inhibitory activity: 5-HETE produced in a cell-free extract of rat basophilic leukemia (RBL-1) cells; assay type: biochemical
T1 construct: produced in a cell-free extract of rat basophilic leukemia cells (RBL-1 cells, ATCC CRL 1378); endogenous in cells; host or cells: RBL-1 cells (rat basophilic leukemia), ATCC CRL 1378; cell-free extract
T1 sequence (P12527 1-673): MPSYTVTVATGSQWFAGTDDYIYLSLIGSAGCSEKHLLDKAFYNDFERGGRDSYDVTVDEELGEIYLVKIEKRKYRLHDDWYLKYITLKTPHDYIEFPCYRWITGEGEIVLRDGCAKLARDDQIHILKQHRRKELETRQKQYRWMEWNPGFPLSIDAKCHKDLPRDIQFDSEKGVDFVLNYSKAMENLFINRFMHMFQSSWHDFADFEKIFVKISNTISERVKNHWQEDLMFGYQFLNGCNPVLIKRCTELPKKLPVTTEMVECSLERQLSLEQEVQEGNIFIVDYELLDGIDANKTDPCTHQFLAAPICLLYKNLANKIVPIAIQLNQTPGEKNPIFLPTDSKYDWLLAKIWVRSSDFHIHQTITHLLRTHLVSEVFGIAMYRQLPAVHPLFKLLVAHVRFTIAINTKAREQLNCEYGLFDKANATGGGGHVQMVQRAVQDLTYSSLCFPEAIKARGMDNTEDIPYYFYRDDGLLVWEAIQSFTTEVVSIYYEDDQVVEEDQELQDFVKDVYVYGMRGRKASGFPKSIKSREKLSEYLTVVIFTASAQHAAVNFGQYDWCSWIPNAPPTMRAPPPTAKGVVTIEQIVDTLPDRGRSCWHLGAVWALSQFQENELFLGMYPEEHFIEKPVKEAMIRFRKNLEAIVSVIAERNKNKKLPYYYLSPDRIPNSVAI
Experimental: 20-Jar Fermentation. A 5-ml portion of the seed culture was transferred into a 500-ml Erlenmeyer flask containing 100 ml of the seed medium described above. Fermentation was carried out for 3 days at 28° C. and 200 rpm. This seed culture (500 ml) was inoculated into a 20-liter jar fermentor containing 12 liters of the production medium composed of soluble starch 2%, Pharmamedia (Trader's Protein) 1%, yeast extract 0.2%, ZnSO4 ·7H2 O 0.003% and CaCO3 0.4% (pH 7.0) and fermented for 3 days under the following conditions: temperature, 28° C.; aeration, 10 liters/minute; internal pressure, 0.5 kg/cm^2; agitation, 250 rpm. For preparation of an assay sample, a 3-ml of the whole broth was extracted with the same volume of n-butanol. After centrifugation, the solvent layer was evaporated to dryness and dissolved into the same volume of 10% dimethylsulfoxide (DMSO) solution. The solution was used as an assay sample.

B16 melanoma = assay type: in vivo, mouse; details: ip; for MST (Median survival time) / T/C: Q4D × 3; for Avg Weight change on day 5: mouse, in vivo
Experimental: (§2) B16 melanoma was intraperitoneally (ip) inoculated with 0.5 ml of 10% brei per male BDF1 mouse, and P388 leukemia intraperitoneally inoculated with 10^6 cells per female CDF1 mouse. The test materials were intraperitoneally administered to the tumor-bearing mice by the following treatment schedules: once daily on days 1 to 3 (Q1D×3), once a day on days 1, 4, and 7 (Q3D×3) and once a day on days 1, 5 and 9 (Q4D×3).
(§3) The in vivo antitumor activity was determined in tumor-bearing mice.

P388 leukemia = assay type: in vivo, mouse; details: ip; for T/C: ≥ 125 significantly active; for Avg Weight change on day 4: mouse, in vivo
Experimental: as §2, §3

[1] = test system: K562, B16-F10 and Moser cells; experiment: In vitro cytotoxicity, range over K562, B16-F10 and Moser; assay type: cell-based, murine and human; details: vs K562, B16-F10 and Moser; read-out: IC50 (inhibited growth of tumor cell lines), range
Experimental: as §1

K562 cells = experiment: In vitro cytotoxicity, K562 (human myelogenous leukemia), neutral red, 72 hours; assay type: cell-based; details: K562, 72 hours
Experimental: as §1

Solubility = assay type: physicochemical
Moser cells = experiment: In vitro cytotoxicity, Moser (human colorectal carcinoma), neutral red, 72 hours; assay type: cell-based
Experimental: as §1

[2] = Table 8, rat 5-LPO, read-out: IC50 (5-Lipoxygenase Inhibitory Activity)

**Q.** What does the source list for `COc1cc(OC)c2c(c1)N(C/C=C(\C)CC/C=C(\C)CCC=C(C)C)c1c(OC)cccc1C(=O)N2` [Trimethyl BU-4664L]?
**A.** cytotoxicity (B16-F10 cells): weaker cytotoxicity; IC50 (B16-F10 cells): 21 µg/mL (≈ 41.6 µM); cytotoxicity (HCT-116 cells): weaker cytotoxicity; IC50 (HCT-116 cells): 12.5 µg/mL (≈ 24.8 µM); IC50 (5-lipoxygenase (5-LPO); [2]): > 39.6 µM; 5-LPO inhibitory activity (5-lipoxygenase (5-LPO); rat 5-LPO): seemed to be devoid of 5-LPO inhibitory activity

**Q.** Which results are given for `CO[C@@]12[C@H](COC(N)=O)C3=C(C(=O)C(C)=C(N)C3=O)N1C[C@@H]1N[C@@H]12` [Mitomycin C, reference compound]?
**A.** MST (Median survival time) (B16 melanoma; 0.5 mg/kg/day): 16.0 days; T/C (B16 melanoma; 0.5 mg/kg/day): 123%; MST (Median survival time) (B16 melanoma; 1 mg/kg/day): 22.5 days; T/C (B16 melanoma; 1 mg/kg/day): 173%; MST (Median survival time) (B16 melanoma; 2 mg/kg/day): 26.7 days; T/C (B16 melanoma; 2 mg/kg/day): 204%; Avg Weight change on day 5 (B16 melanoma; 0.5 mg/kg/day): +0.8 g; Avg Weight change on day 5 (B16 melanoma; 1 mg/kg/day): +0.5 g; Avg Weight change on day 5 (B16 melanoma; 2 mg/kg/day): +0.3 g; MST (Median survival time) (P388 leukemia; 0.3 mg/kg/day, Q1D × 3): 12.5 days; T/C (P388 leukemia; 0.3 mg/kg/day, Q1D × 3): 119%; MST (Median survival time) (P388 leukemia; 1 mg/kg/day, Q1D × 3): 16.0 days; T/C (P388 leukemia; 1 mg/kg/day, Q1D × 3): 152%; MST (Median survival time) (P388 leukemia; 3 mg/kg/day, Q1D × 3): 21.0 days; T/C (P388 leukemia; 3 mg/kg/day, Q1D × 3): 200%; Avg Weight change on day 4 (P388 leukemia; 0.3 mg/kg/day): +0.3 g; Avg Weight change on day 4 (P388 leukemia; 1 mg/kg/day): 0.0 g; Avg Weight change on day 4 (P388 leukemia; 3 mg/kg/day): -1.5 g

**Q.** What does the source list for `CC(=O)Oc1cc(OC(C)=O)c2c(c1)N(C/C=C(\C)CC/C=C(\C)CCC=C(C)C)c1c(OC(C)=O)cccc1C(=O)N2` [Triacetyl BU-4664L]?
**A.** cytotoxicity (B16-F10 cells): weaker cytotoxicity; IC50 (B16-F10 cells): 2.4 µg/mL (≈ 4.08 µM); cytotoxicity (HCT-116 cells): weaker cytotoxicity; IC50 (HCT-116 cells): 4.4 µg/mL (≈ 7.47 µM); IC50 (5-lipoxygenase (5-LPO); [2]): > 34 µM; 5-LPO inhibitory activity (5-lipoxygenase (5-LPO); rat 5-LPO): seemed to be devoid of 5-LPO inhibitory activity

**Q.** What does the source list for `CC(C)=CCC/C(C)=C/CC/C(C)=C/CN1c2cc(O)cc(O)c2NC(=O)c2cccc(O)c21` [BU-4664L, 5-farnesyl-4,7,9-trihydroxy dibenzo[b,e][1,4]diazepin-11-one]?
**A.** IC50 (B16-F10 cells): 1.9 µg/mL (≈ 4.11 µM); IC50 [1]: 1.1 to 18 µg/mL (≈ 2.38 to 38.9 µM); IC50 (K562 cells): 1.1 µg/mL (≈ 2.38 µM); IC50 (HCT-116 cells): 2.6 µg/mL (≈ 5.62 µM); solubility (Solubility; chloroform): slightly soluble; solubility (Solubility; dimethyl sulfoxide): soluble; solubility (Solubility; ethanol): soluble; solubility (Solubility; ethyl acetate): soluble; solubility (Solubility; methanol): soluble; solubility (Solubility; n-hexane): insoluble; solubility (Solubility; water): insoluble; survival time of mice inoculated with B16 melanoma (B16 melanoma): significant prolongation of the survival time; MST (Median survival time) (B16 melanoma; 3 mg/kg/day): 16.5 days; T/C (B16 melanoma; 3 mg/kg/day): 127%; MST (Median survival time) (B16 melanoma; 10 mg/kg/day): 17.5 days; T/C (B16 melanoma; 10 mg/kg/day): 135%; MST (Median survival time) (B16 melanoma; 30 mg/kg/day): 17.0 days; T/C (B16 melanoma; 30 mg/kg/day): 131%; activity against B16 melanoma in terms of minimum effective dose (B16 melanoma; compared with Mitomycin C): weaker than Mitomycin C; Avg Weight change on day 5 (B16 melanoma; 3 mg/kg/day): +0.3 g; Avg Weight change on day 5 (B16 melanoma; 10 mg/kg/day): +0.3 g; Avg Weight change on day 5 (B16 melanoma; 30 mg/kg/day): -0.8 g; T/C values against P388 leukemia (P388 leukemia): good T/C values; survival time of mice inoculated with P388 (P388 leukemia): significant prolongation of the survival time; MST (Median survival time) (P388 leukemia; 0.3 mg/kg/day, Q1D × 3): 12.0 days; T/C (P388 leukemia; 0.3 mg/kg/day, Q1D × 3): 120%; MST (Median survival time) (P388 leukemia; 1 mg/kg/day, Q1D × 3): 11.0 days; T/C (P388 leukemia; 1 mg/kg/day, Q1D × 3): 110%; MST (Median survival time) (P388 leukemia; 1 mg/kg/day, Q3D × 3): 11.9 days; T/C (P388 leukemia; 1 mg/kg/day, Q3D × 3): 119%; MST (Median survival time) (P388 leukemia; 3 mg/kg/day, Q1D × 3): 13.0 days; T/C (P388 leukemia; 3 mg/kg/day, Q1D × 3): 130%; MST (Median survival time) (P388 leukemia; 3 mg/kg/day, Q3D × 3): 15.2 days; T/C (P388 leukemia; 3 mg/kg/day, Q3D × 3): 152%; MST (Median survival time) (P388 leukemia; 10 mg/kg/day, Q1D × 3): 15.0 days; T/C (P388 leukemia; 10 mg/kg/day, Q1D × 3): 150%; MST (Median survival time) (P388 leukemia; 10 mg/kg/day, Q3D × 3): 16.2 days; T/C (P388 leukemia; 10 mg/kg/day, Q3D × 3): 162%; MST (Median survival time) (P388 leukemia; 30 mg/kg/day, Q1D × 3): 16.0 days; T/C (P388 leukemia; 30 mg/kg/day, Q1D × 3): 160%; MST (Median survival time) (P388 leukemia; 30 mg/kg/day, Q3D × 3): 12.5 days; T/C (P388 leukemia; 30 mg/kg/day, Q3D × 3): 152%; Avg Weight change on day 4 (P388 leukemia; 0.3 mg/kg/day): +0.5 g; 5-LPO inhibitory activity (5-lipoxygenase (5-LPO); rat 5-LPO): good 5-LPO inhibitory activity; IC50 (5-lipoxygenase (5-LPO); rat 5-LPO, read-out: IC50 (5-LPO inhibitory activity)): 1.7 µM; IC50 (Moser cells): 18 µg/mL (≈ 38.9 µM)
